In ChEMBL document CHEMBL5360545, “Multitargeted drug design strategy for discovery of short-peptide-based HIV-1 entry inhibitors with high potency” (Eur J Med Chem, 2023):
Activity calls are given as the source filed them. No cut-off for these calls is given here. Side chains are listed from the residue outwards. Peptide text beside a SMILES is read from it. * marks the point of attachment. PEG24 = NCCOCCOCCOCCOCCOCCOCCOCCOCCOCCOCCOCCOCCOCCOCCOCCOCCOCCOCCOCCOCCOCCOCCOCCOCCC(=O)O; X2 = CC(=O)N1CCC(C(=O)N(CCCN2C3CCC2CC(NS(=O)(=O)c2ccc(C(=O)*)cc2)C3)c2ccc(C)c(Cl)c2)CC1; X1 = CC(=O)N1CCC(C(=O)N(CCCN2CCC(Cc3ccc(C(=O)*)cc3)CC2)c2ccc(C)c(Cl)c2)CC1; PEG12 = NCCOCCOCCOCCOCCOCCOCCOCCOCCOCCOCCOCCOCCC(=O)O; PEG8 = NCCOCCOCCOCCOCCOCCOCCOCCOCCC(=O)O; PEG4 = NCCOCCOCCOCCOCCC(=O)O

How the values were obtained:
[1] = test system: Human immunodeficiency virus 1; test: Antiviral activity against HIV-1 clinical isolate X4-92UG024 infected in human CEMx174 5.25M7 cells assessed as reduction in p24 antigen level measured after 4 days by ELISA; type: functional, organism-based; details: Human immunodeficiency virus 1, clinical isolate X4-92UG024, CEMx174 5.25M7, 96 h
[2] = test system: Human immunodeficiency virus 1; test: Antiviral activity against HIV-1 clinical isolate R5-91US-4 infected in human CEMx174 5.25M7 cells assessed as reduction in p24 antigen level measured after 4 days by ELISA; type: functional, organism-based; details: Human immunodeficiency virus 1, clinical isolate R5-91US-4, CEMx174 5.25M7, 96 h
[3] = test system: Human immunodeficiency virus 1; test: Antiviral activity against HIV-1 Bal-R5 infected in human CEMx174 5.25M7 cells assessed as reduction in p24 antigen level measured after 4 days by ELISA; type: functional, organism-based; details: Human immunodeficiency virus 1, Bal-R5, CEMx174 5.25M7, 96 h
[4] = test system: Human immunodeficiency virus 1; test: Antiviral activity against HIV-1 clinical isolate 97 TH-NP1525 infected in human CEMx174 5.25M7 cells assessed as reduction in p24 antigen level measured after 4 days by ELISA; type: functional, organism-based; details: Human immunodeficiency virus 1, clinical isolate 97 TH-NP1525, CEMx174 5.25M7, 96 h
[5] = test system: Human immunodeficiency virus 1; test: Antiviral activity against HIV-1 clinical isolate X4-89BZ167 infected in human CEMx174 5.25M7 cells assessed as reduction in p24 antigen level measured after 4 days by ELISA; type: functional, organism-based; details: Human immunodeficiency virus 1, clinical isolate X4-89BZ167, CEMx174 5.25M7, 96 h
[6] = molecular target: C-C chemokine receptor type 5 (Homo sapiens, UniProt P51681); test: Antagonist activity at CCR5 (unknown origin) expressed in HEK293 cells co-expressing Galpha16 assessed as intracellular calcium change incubated for 60 mins by Fluo-4 AM calcium flux based FLIPR assay; type: functional, cell-based
[7] = test system: Human immunodeficiency virus 1; test: Antiviral activity against HIV-1 clinical isolate R5-J32228M4 infected in human CEMx174 5.25M7 cells assessed as reduction in p24 antigen level measured after 4 days by ELISA; type: functional, organism-based; details: Human immunodeficiency virus 1, clinical isolate R5-J32228M4, CEMx174 5.25M7, 96 h
[8] = Proteolytic stability in rat liver assessed as parent compound remaining incubated for 4 hrs by RP-UHPLC analysis; type: ADME, tissue-based; details: read-out: Stability
[9] = Proteolytic stability in rat kidney incubated upto 240 mins by RP-UHPLC analysis; type: ADME, tissue-based; details: 4 h
[10] = molecular target: Envelope glycoprotein gp160 (Human immunodeficiency virus 1) (UniProt Q72502); test: Binding affinity to HIV1 GP41 using GP41 NHR derived N39 peptide assessed as melting temperature incubated for 30 mins by circular dichroism spectroscopy
[11] = molecular target: Envelope glycoprotein gp160 (Human immunodeficiency virus 1) (UniProt Q72502); test: Binding affinity to HIV1 GP41 using GP41 NHR derived N39 peptide assessed as change in entropy by isothermal titration calorimetry
[12] = molecular target: Envelope glycoprotein gp160 (Human immunodeficiency virus 1) (UniProt Q72502); test: Binding affinity to HIV1 GP41 using GP41 NHR derived N39 peptide at 100 uM incubated for 30 mins by PAGE gel electrophoresis analysis
[13] = molecular target: Envelope glycoprotein gp160 (Human immunodeficiency virus 1) (UniProt Q72502); test: Binding affinity to HIV1 GP41 using GP41 NHR derived N39 peptide assessed as binding constant by isothermal titration calorimetry
[14] = molecular target: Envelope glycoprotein gp160 (Human immunodeficiency virus 1) (UniProt Q72502); test: Binding affinity to HIV1 GP41 using GP41 NHR derived N39 peptide assessed as change in enthalpy by isothermal titration calorimetry

C-C chemokine receptor type 5, sequence (P51681 whole entry): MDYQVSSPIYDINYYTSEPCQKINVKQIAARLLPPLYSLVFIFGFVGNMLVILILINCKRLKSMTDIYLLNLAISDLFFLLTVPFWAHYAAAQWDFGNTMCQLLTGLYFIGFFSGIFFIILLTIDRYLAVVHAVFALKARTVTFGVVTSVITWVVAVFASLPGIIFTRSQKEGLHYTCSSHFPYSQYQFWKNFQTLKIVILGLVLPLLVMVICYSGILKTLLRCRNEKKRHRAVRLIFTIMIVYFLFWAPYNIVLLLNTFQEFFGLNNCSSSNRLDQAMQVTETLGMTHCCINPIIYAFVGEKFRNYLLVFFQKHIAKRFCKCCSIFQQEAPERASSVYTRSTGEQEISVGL

Molecule	EC50 [3] [nM]	EC50 [1] [nM]	EC50 [2] [nM]	EC50 [4] [nM]	EC50 [5] [nM]	IC50 [6] [nM]	EC50 [7] [nM]	other results
CC(=O)N1CCC(C(=O)N(CCCN2CCC(Cc3ccc(C(N)=O)cc3)CC2)c2ccc(C)c(Cl)c2)CC1	9.03	> 300	12.1	> 300	> 300	0.83	161	
CC[C@H](C)[C@H](NC(C)=O)C(=O)N[C@@H](CCC(=O)O)C(=O)N[C@@H](CCC(=O)O)C(=O)N[C@@H](CC(C)C)C(=O)N[C@H](C(=O)N[C@@H](CCCNC(=N)N)C(=O)N[C@@H](C)C(=O)N[C@@H](C)C(=O)N[C@@H](CCC(N)=O)C(=O)N[C@@H](CCC(=O)O)C(=O)N[C@@H](CCC(N)=O)C(=O)N[C@@H](CCC(N)=O)C(=O)N[C@@H](CCCNC(=N)N)C(=O)N[C@@H](CCCCN)C(=O)N[C@@H](CC(N)=O)C(=O)N[C@@H](CCC(=O)O)C(=O)N[C@@H](CCC(=O)O)C(=O)N[C@@H](C)C(=O)N[C@@H](CC(C)C)C(=O)N[C@@H](CCCNC(=N)N)C(=O)N[C@@H](CCC(=O)O)C(=O)N[C@@H](CC(C)C)C(=O)N[C@@H](CCCCNC(=O)CCOCCOCCOCCOCCOCCOCCOCCOCCOCCOCCOCCOCCNC(=O)c1ccc(S(=O)(=O)NC2CC3CCC(C2)N3CCCN(C(=O)C2CCN(C(C)=O)CC2)c2ccc(C)c(Cl)c2)cc1)C(N)=O)[C@@H](C)CC (stereo not given in full) (Ac-IEELIRAAQEQQRKNEEALRELK([PEG12-X2])-NH2)	0.16	1.24	1.01	0.99	2.97	10.3	14.8	remaining at 4 h [8]: > 72%; Stability [9]: Stable; Tm [10]: 56 °C; deltaS [11]: -27.3 cal/mol/deg; Activity [12]: Active; K [13]: 1.97 10^5/M; deltaH [14]: -1.5 10^4cal/mol
CC[C@H](C)[C@H](NC(=O)[C@H](CCCCN)NC(=O)[C@H](CCC(N)=O)NC(=O)[C@H](CCC(=O)O)NC(=O)[C@H](Cc1c[nH]c2ccccc12)NC(C)=O)C(=O)N[C@@H](CCC(=O)O)C(=O)N[C@@H](CCC(=O)O)C(=O)N[C@@H](CC(C)C)C(=O)N[C@@H](CC(C)C)C(=O)N[C@@H](CCCCN)C(=O)N[C@@H](CCCCN)C(=O)N[C@@H](C)C(=O)N[C@@H](CCC(=O)O)C(=O)N[C@@H](CCC(=O)O)C(=O)N[C@@H](CCC(N)=O)C(=O)N[C@@H](CCC(N)=O)C(=O)N[C@@H](CCCCN)C(=O)N[C@@H](CCCCN)C(=O)N[C@@H](CC(N)=O)C(=O)N[C@@H](CCC(=O)O)C(=O)N[C@@H](CCC(=O)O)C(=O)N[C@@H](CCC(=O)O)C(=O)N[C@@H](CC(C)C)C(=O)N[C@@H](CCCCN)C(=O)N[C@@H](CCCCN)C(=O)N[C@@H](CC(C)C)C(=O)N[C@@H](CCC(=O)O)C(=O)N[C@@H](CCCCN)C(=O)N[C@@H](CCCCNC(=O)CCOCCOCCOCCOCCOCCOCCOCCOCCNC(=O)c1ccc(CC2CCN(CCCN(C(=O)C3CCN(C(C)=O)CC3)c3ccc(C)c(Cl)c3)CC2)cc1)C(N)=O (Ac-WEQKIEELLKKAEEQQKKNEEELKKLEKK([PEG8-X1])-NH2)	1.52							
Ac-IEELIRAAQEQQRKNEEALREL-NH2	4.47	76.5	275	3.7	63.1	> 10000	> 250	deltaS [11]: -6.92 cal/mol/deg; K [13]: 8.29 10^5/M; deltaH [14]: -1 10^4cal/mol
enfuvirtide		24.6		2.54	48.2			remaining at 4 h [8]: 45%

Now from value to molecule, other results behind:

EC50 [3] [nM]	Molecule	EC50 [1] [nM]	EC50 [2] [nM]	EC50 [4] [nM]	EC50 [5] [nM]	IC50 [6] [nM]	EC50 [7] [nM]	other results
1.11	CC[C@H](C)[C@H](NC(=O)[C@H](CCCCN)NC(=O)[C@H](CCC(N)=O)NC(=O)[C@H](CCC(=O)O)NC(=O)[C@H](Cc1c[nH]c2ccccc12)NC(C)=O)C(=O)N[C@@H](CCC(=O)O)C(=O)N[C@@H](CCC(=O)O)C(=O)N[C@@H](CC(C)C)C(=O)N[C@@H](CC(C)C)C(=O)N[C@@H](CCCCN)C(=O)N[C@@H](CCCCN)C(=O)N[C@@H](C)C(=O)N[C@@H](CCC(=O)O)C(=O)N[C@@H](CCC(=O)O)C(=O)N[C@@H](CCC(N)=O)C(=O)N[C@@H](CCC(N)=O)C(=O)N[C@@H](CCCCN)C(=O)N[C@@H](CCCCN)C(=O)N[C@@H](CC(N)=O)C(=O)N[C@@H](CCC(=O)O)C(=O)N[C@@H](CCC(=O)O)C(=O)N[C@@H](CCC(=O)O)C(=O)N[C@@H](CC(C)C)C(=O)N[C@@H](CCCCN)C(=O)N[C@@H](CCCCN)C(=O)N[C@@H](CC(C)C)C(=O)N[C@@H](CCC(=O)O)C(=O)N[C@@H](CCCCN)C(=O)N[C@@H](CCCCNC(=O)CCOCCOCCOCCOCCNC(=O)c1ccc(CC2CCN(CCCN(C(=O)C3CCN(C(C)=O)CC3)c3ccc(C)c(Cl)c3)CC2)cc1)C(N)=O (Ac-WEQKIEELLKKAEEQQKKNEEELKKLEKK([PEG4-X1])-NH2)							
0.35	CC[C@H](C)[C@H](NC(=O)[C@H](CCCCN)NC(=O)[C@H](CCC(N)=O)NC(=O)[C@H](CCC(=O)O)NC(=O)[C@H](Cc1c[nH]c2ccccc12)NC(C)=O)C(=O)N[C@@H](CCC(=O)O)C(=O)N[C@@H](CCC(=O)O)C(=O)N[C@@H](CC(C)C)C(=O)N[C@@H](CC(C)C)C(=O)N[C@@H](CCCCN)C(=O)N[C@@H](CCCCN)C(=O)N[C@@H](C)C(=O)N[C@@H](CCC(=O)O)C(=O)N[C@@H](CCC(=O)O)C(=O)N[C@@H](CCC(N)=O)C(=O)N[C@@H](CCC(N)=O)C(=O)N[C@@H](CCCCN)C(=O)N[C@@H](CCCCN)C(=O)N[C@@H](CC(N)=O)C(=O)N[C@@H](CCC(=O)O)C(=O)N[C@@H](CCC(=O)O)C(=O)N[C@@H](CCC(=O)O)C(=O)N[C@@H](CC(C)C)C(=O)N[C@@H](CCCCN)C(=O)N[C@@H](CCCCN)C(=O)N[C@@H](CC(C)C)C(=O)N[C@@H](CCC(=O)O)C(=O)N[C@@H](CCCCN)C(=O)N[C@@H](CCCCNC(=O)CCOCCOCCOCCOCCOCCOCCOCCOCCOCCOCCOCCOCCNC(=O)c1ccc(CC2CCN(CCCN(C(=O)C3CCN(C(C)=O)CC3)c3ccc(C)c(Cl)c3)CC2)cc1)C(N)=O (Ac-WEQKIEELLKKAEEQQKKNEEELKKLEKK([PEG12-X1])-NH2)							
0.12	CC[C@H](C)[C@H](NC(=O)[C@H](CCCCN)NC(=O)[C@H](CCC(N)=O)NC(=O)[C@H](CCC(=O)O)NC(=O)[C@H](Cc1c[nH]c2ccccc12)NC(C)=O)C(=O)N[C@@H](CCC(=O)O)C(=O)N[C@@H](CCC(=O)O)C(=O)N[C@@H](CC(C)C)C(=O)N[C@@H](CC(C)C)C(=O)N[C@@H](CCCCN)C(=O)N[C@@H](CCCCN)C(=O)N[C@@H](C)C(=O)N[C@@H](CCC(=O)O)C(=O)N[C@@H](CCC(=O)O)C(=O)N[C@@H](CCC(N)=O)C(=O)N[C@@H](CCC(N)=O)C(=O)N[C@@H](CCCCN)C(=O)N[C@@H](CCCCN)C(=O)N[C@@H](CC(N)=O)C(=O)N[C@@H](CCC(=O)O)C(=O)N[C@@H](CCC(=O)O)C(=O)N[C@@H](CCC(=O)O)C(=O)N[C@@H](CC(C)C)C(=O)N[C@@H](CCCCN)C(=O)N[C@@H](CCCCN)C(=O)N[C@@H](CC(C)C)C(=O)N[C@@H](CCC(=O)O)C(=O)N[C@@H](CCCCN)C(=O)N[C@@H](CCCCNC(=O)CCOCCOCCOCCOCCOCCOCCOCCOCCOCCOCCOCCOCCOCCOCCOCCOCCOCCOCCOCCOCCOCCOCCOCCOCCNC(=O)c1ccc(CC2CCN(CCCN(C(=O)C3CCN(C(C)=O)CC3)c3ccc(C)c(Cl)c3)CC2)cc1)C(N)=O (Ac-WEQKIEELLKKAEEQQKKNEEELKKLEKK([PEG24-X1])-NH2)							
2.45	Ac-WEQKIEELLKKAEEQQKKNEEELKKLEK-NH2							
